Source: patent US8758730B2, “Compositions, use and method for the use of surface active proteins in topical drug delivery across keratin” (B.R.A.I.N. Biotechnology Research and Information Network AG, priority 2009, dated 2014)
One block for each molecule: values may come before it.

What was measured:
[1] = assay type: in vitro ADME
Excerpt: A formulation with one enhancer, Trichoderma reesei hydrophobin HFBII (isolation see […]., Aro, […]. and […]. 1997, Differential expression of the vegetative and spore-bound hydrophobins of Tricoderma reesei, Cloning and characterization of the hfb2 gene. Eur. J. […] As ethanol is a potential solvent for substances poorly soluble in water and prevents from microbiological growth, a better or a similar permeability is desirable. […] With this caffeine-concentration the solution was nearly saturated. This was intended to achieve a faster steady state according to the highest concentration gradient possible. Phosphate buffered saline (PBS) was prepared with a pH of 7.4. Both pH and osmolality of PBS simulated in the Franz diffusion cell's acceptor chamber the physiological conditions of blood (a systemic buffer system). The water used for the formulations and PBS was freshly produced, double distilled and filtered. Healthy nails for the permeability experiments were obtained from the Institute of Anatomy of the University of Basel and from the Institute of Anatomy of the University of Freiburg, Germany. […] The concentrations of the samples were measured with UV-spectrophotometry. Flux and permeation coefficients were calculated with the values after 48 hours, as in this time a steady state was obtained.

[2] = Nail penetration study with Terbinafine (example 1a); assay type: in vitro ADME; conditions: reference solution: 10% (w/v) Terbinafine in 60% (v/v) ethanol/water, no hydrophobin; average of 3
Protocol: Healthy nails for the permeability experiments were obtained from the Institute of Anatomy of the University of Basel and from the Institute of Anatomy of the University of Freiburg, Germany. Franz Diffusion Cells (SES GmbH—Analysesysteme, Bechenheim, Germany) with a diffusion area of 0.785 cm^2 were used. […] Subsequently, they were mounted in the diffusion cells in an appropriate manner. The acceptor chamber below the nail was filled with 5 ml PBS. The formulation (400 μl) was applied onto the nail. In order to keep the temperature in the system constant, the glass cells were tempered by a water jacket kept at 32°. The acceptor chambers were stirred with a magnetic stirrer at 400 rpm. The openings for the formulations and the extensions for taking samples were covered with Parafilm (film comprising paraffin wax and polyethene; American National Can Company, USA). A sample of 400 μl was taken from each cell twice a day and replaced with the same amount of PBS warmed to 32° C. […] The concentrations of the samples were measured with UV-spectrophotometry. Flux and permeation coefficients were calculated with the values after 48 hours, as in this time a steady state was obtained. […]

[3] = test system: cells in the skin model (EST-1000); assay type: cell-based; conditions: human, 48 h, 1 %
Protocol: Cytotoxicity of the test samples on the skin culture was determined by MTT-assay according to the instructions of the skin model provider. The viability of the cells in the skin model was not influenced by the solvents (50% ethanol, 0.002% SDS) as compared to cultures treated with PBS only. A viability of about 50% of that of the control cultures was observed when 1% caffeine or 1% caffeine/10 μg hydrophobin (SC3 or HFB II, respectively) were applied on the skin culture, showing that hydrophobin itself was not cytotoxic at a concentration of 200 μg/ml. The barrier function of the skin model is probably not influenced profoundly by the reduced viability of the cells, since the upper layer keratinocytes comprises non living cells.

[4] = assay type: in vitro ADME, human
Protocol: The penetration of caffeine through the skin was measured using a human epidermal skin model (EST-1000, Cell Systems, St. Katharinen, Germany). The in vitro model for human skin consists of a robust multilayer three-dimensional cell culture, which has been grown for 14 days and has skin-like properties. The cellular structure of EST-1000 resembles that of the natural epidermis showing a base membrane, proliferating keratinocytes and stratum corneum with an intact barrier function. The tissues were provided in cell culture inserts with a polycarbonate membrane with 0.63 cm^2 surface area and 0.4 μm pore size. The membranes were covered completely by the cells and show a matte white, dry surface after complete differentiation. The inserts were handled easily by the use of a sterile forceps. Upon delivery, the skin inserts were equilibrated by placing each insert into a well of a 6-well cell culture dish containing 1 ml of maintenance medium (provided by Cell Systems). After 4-12 hours of equilibration the test substance was applied on the dry surface of the skin model. Penetration of substances applied onto the surface of the skin culture through the skin model was measured by sampling the medium surrounding the insert and detecting the concentration of the test substance, here caffeine. […] Caffeine was purchased from Sigma and applied in a concentration of 10 mg/ml (1% w/v). […]

Molecule: Cn1c(=O)c2c(ncn2C)n(C)c1=O [caffeine]
Viability relative to control cultures (MTT) [3]: about 50%

B1: SC3: class I hydrophobin of 112 amino acids from Schizophyllum commune, accession P16933 (protein, UniProt P16933 25-136, looked up)
Class I hydrophobin SC3: GGHPGTTTPPVTTTVTVTTPPSTTTIAAGGTCTTGSLSCCNQVQSASSSPVTALLGLLGIVLSDLNVLVGISCSPLTVIGVGGSGCSAQTVCCENTQFNGLINIGCTPINIL
Enhancement of penetration of caffeine (1% w/v) through in vitro model of human skin [4]: up to 21.5%

Further lines, results first:

Enhancement factor (EF) in 20% (v/v) EtOH/water [1]: 3.25
Molecule: C[S+](C)[O-] [DMSO, dimethylsulfoxide]

Cumulated amount of Terbinafine penetrated through nail after 10 days [2]: ~12 mg/cm2
Molecule: CN(C/C=C/C#CC(C)(C)C)Cc1cccc2ccccc12 [Terbinafine]
